How the values were obtained:
HDAC2 = HDAC2 (Homo sapiens, UniProt Q92769); test: HDAC2 degradation by quantitative western blotting in HCT116 cells; settings: HCT116 cells, 24 h, 0.1, 1 and 10 μM; compared with 1 at 10 μM
Procedure: (§1) Initially, each PROTAC was tested at 0.1, 1, and 10 μM in HCT116 cells for 24 h; then, cell extracts were prepared and evaluated for HDAC1/2 and 3 degradation by quantitative western blotting.
(§2) This cell line was incubated at 37 °C with 5% CO2.
(§3) HCT116 cells were seeded into 6-well plates (4 × 10^5 cells/well for 24 h, 2 × 10^5 cells/well for 48 h) for 24 h and then treated with DMSO or compounds at the indicated concentrations in fresh medium (5 mL total). After desired treatment time, the cells were harvested and then lysed in lysis buffer (50 mM Tris-HCl, 150 mM NaCl, 0.5% NP-40, 0.5% Triton X-100) supplemented with a protease inhibitor (Sigma, P8340). The suspension was incubated on ice for 30 min and centrifuged (18,000 rcf, 15 min, 4 °C); then, the supernatant was collected, and protein concentrations were quantified via Bradford Assay using Protein Assay Dye Reagent Concentrate (BIO-RAD). […] PageRuler Plus Prestained Ladder was used for size standards. After gel electrophoresis at 140 V for 90 min, the separated proteins were transferred onto a nitrocellulose membrane at 30 V for 60 min. The membranes were probed with primary antibodies (see the Supporting Information) for 60−90 min. Blots were developed with complimentary IRDye-conjugated secondary antibodies, and the bands were visualized using an Odyssey infrared imaging system. Image processing and band intensity quantification were performed using Image Studio Lite.

HDAC1 = HDAC1 (Homo sapiens, UniProt Q13547); test: HDAC1 degradation by quantitative western blotting in HCT116 cells; settings: HCT116 cells; for HDAC1 degradation in initial screen (in words): 24 h, 0.1, 1 and 10 μM, compared with 1 at 10 μM
Procedure: as §1, §2, §3

H3K56ac = test: Histone H3 Lys 56 acetylation (H3K56ac) western blotting; assay type: cell-based, human; settings: HCT116 cells, 24 h, screen at 0.1, 1, 10 μM; relative to DMSO, CI-994 and 1 at 10 μM
Excerpt: Supporting Information: Biology
Representative blots of two independent biological replicates.

HDAC3 = HDAC3 (Homo sapiens, UniProt O15379); test: HDAC3 degradation by quantitative western blotting in HCT116 cells; settings: HCT116 cells, 24 h, 0.1, 1 and 10 μM; compared with 1 at 10 μM
Chain of HDAC3 (O15379 whole entry): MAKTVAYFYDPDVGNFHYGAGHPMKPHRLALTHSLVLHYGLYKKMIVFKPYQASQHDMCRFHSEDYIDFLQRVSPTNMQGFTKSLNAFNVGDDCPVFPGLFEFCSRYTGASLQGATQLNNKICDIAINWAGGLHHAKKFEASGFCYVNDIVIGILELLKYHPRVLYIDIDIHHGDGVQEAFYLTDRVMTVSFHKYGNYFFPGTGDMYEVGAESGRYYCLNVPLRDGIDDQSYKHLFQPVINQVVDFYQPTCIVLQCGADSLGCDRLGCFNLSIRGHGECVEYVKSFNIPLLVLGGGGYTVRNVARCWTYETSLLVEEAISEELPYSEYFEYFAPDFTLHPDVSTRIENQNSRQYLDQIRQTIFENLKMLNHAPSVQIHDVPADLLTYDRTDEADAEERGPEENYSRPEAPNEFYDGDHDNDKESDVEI
Chain of HDAC3 (Q9Y618 389-480 partner limits assumed): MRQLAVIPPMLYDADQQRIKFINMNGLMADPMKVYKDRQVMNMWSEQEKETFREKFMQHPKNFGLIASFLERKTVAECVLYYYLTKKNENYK
Procedure: as §1, §2, §3

Chain of HDAC2 (Q92769 whole entry): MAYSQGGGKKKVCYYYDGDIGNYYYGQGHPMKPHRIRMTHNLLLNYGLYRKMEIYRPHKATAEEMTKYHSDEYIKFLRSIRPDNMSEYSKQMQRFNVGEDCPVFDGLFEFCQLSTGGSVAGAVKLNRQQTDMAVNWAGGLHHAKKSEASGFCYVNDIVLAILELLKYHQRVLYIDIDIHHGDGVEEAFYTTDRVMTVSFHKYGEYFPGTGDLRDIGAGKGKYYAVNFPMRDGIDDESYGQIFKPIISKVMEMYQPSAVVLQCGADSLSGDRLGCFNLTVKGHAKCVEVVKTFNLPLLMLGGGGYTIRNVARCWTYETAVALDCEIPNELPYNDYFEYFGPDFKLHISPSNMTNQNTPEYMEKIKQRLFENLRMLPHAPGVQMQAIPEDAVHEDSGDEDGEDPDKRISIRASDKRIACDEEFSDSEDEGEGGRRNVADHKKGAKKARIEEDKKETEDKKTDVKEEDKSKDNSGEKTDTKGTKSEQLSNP
Chain of HDAC1 (Q13547 whole entry): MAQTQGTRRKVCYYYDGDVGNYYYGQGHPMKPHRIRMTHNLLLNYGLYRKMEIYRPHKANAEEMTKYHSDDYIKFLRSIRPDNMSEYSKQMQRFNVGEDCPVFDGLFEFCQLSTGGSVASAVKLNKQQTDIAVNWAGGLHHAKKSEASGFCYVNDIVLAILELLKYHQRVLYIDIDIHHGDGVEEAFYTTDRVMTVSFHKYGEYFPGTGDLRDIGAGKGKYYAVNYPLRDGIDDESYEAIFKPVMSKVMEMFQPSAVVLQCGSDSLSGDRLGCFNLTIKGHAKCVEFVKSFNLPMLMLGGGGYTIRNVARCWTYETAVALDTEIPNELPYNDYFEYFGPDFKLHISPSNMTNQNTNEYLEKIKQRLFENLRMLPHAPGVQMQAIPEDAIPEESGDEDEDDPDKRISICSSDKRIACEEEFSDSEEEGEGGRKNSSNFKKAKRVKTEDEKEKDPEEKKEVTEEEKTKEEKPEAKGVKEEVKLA

HDAC3 degradation in initial screen (in words) (HDAC3) | DC50 (HDAC1; read-out: DC50 HDAC1, 24 h, quantitative western blotting) | Compound | HDAC2 degradation in initial screen (in words) (HDAC2) | HDAC1 degradation in initial screen (in words) (HDAC1) | H3K56ac levels (in words) (H3K56ac)
generally compromised | – | Cc1ncsc1-c1ccc(CNC(=O)[C@@H]2C[C@@H](O)CN2C(=O)[C@@H](NC(=O)CCCN2CCN(CCCC(=O)Nc3ccc(C(=O)Nc4ccccc4N)cc3)CC2)C(C)(C)C)cc1 [Compound 13, (2S,4R)-1-((S)-2-(4-(4-(4-((4-((2-Aminophenyl)carbamoyl)-phenyl)amino)-4-oxobutyl)piperazin-1-yl)butanamido)-3,3-dimethylbutanoyl)-4-hydroxy-N-(4-(4-methylthiazol-5-yl)benzyl)-pyrrolidine-2-carboxamide] | almost complete loss of HDAC1/2 degradation | almost complete loss of HDAC1/2 degradation | did not increase H3K56ac levels compared to the dimethyl sulfoxide (DMSO) control
only modest HDAC3 degradation at 10 μM | – | Cc1ncsc1-c1ccc(CNC(=O)[C@@H]2C[C@@H](O)CN2C(=O)C(NC(=O)COCCOCCOCC(=O)Nc2ccc(C(=O)Nc3ccc(F)cc3N)cc2)C(C)(C)C)cc1 (stereo in doubt) [Compound 16, (2S,4R)-1-((S)-14-((4-((2-Amino-4-fluorophenyl)carbamoyl)-phenyl)amino)-2-(tert-butyl)-4,14-dioxo-6,9,12-trioxa-3-azatetradecanoyl)-4-hydroxy-N-(4-(4-methylthiazol-5-yl)benzyl)-pyrrolidine-2-carboxamide] | – | – | –
enhanced HDAC3 degradation compared to 1 | – | Cc1ncsc1-c1ccc(CNC(=O)[C@@H]2C[C@@H](O)CN2C(=O)C(NC(=O)CCCCCCCCCCC(=O)Nc2ccc(C(=O)Nc3ccc(F)cc3N)cc2)C(C)(C)C)cc1 (stereo in doubt) [Compound 15, N1-(4-((2-Amino-4-fluorophenyl)carbamoyl)phenyl)-N12-((S)-1-((2S,4R)-4-hydroxy-2-((4-(4-methylthiazol-5-yl)benzyl)carbamoyl)-pyrrolidin-1-yl)-3,3-dimethyl-1-oxobutan-2-yl)dodecanediamide] | – | – | –

The next lines start with the compound.

Compound | HDAC3 degradation in initial screen (in words) (HDAC3) | DC50 (HDAC1; read-out: DC50 HDAC1, 24 h, quantitative western blotting) | HDAC2 degradation in initial screen (in words) (HDAC2) | HDAC1 degradation in initial screen (in words) (HDAC1) | H3K56ac levels (in words) (H3K56ac)
Cc1ncsc1-c1ccc(CNC(=O)[C@@H]2C[C@@H](O)CN2C(=O)[C@@H](NC(=O)CCCCCCCC(=O)Nc2ccc(C(=O)Nc3cc(-c4cccs4)ccc3N)cc2)C(C)(C)C)cc1 [Compound 18, N1-(4-((2-Amino-5-(thiophen-2-yl)phenyl)carbamoyl)phenyl)-N9-((S)-1-((2S,4R)-4-hydroxy-2-((4-(4-methylthiazol-5-yl)benzyl)-carbamoyl)pyrrolidin-1-yl)-3,3-dimethyl-1-oxobutan-2-yl)-nonanediamide] | – | – | did not result in enhanced degradation potency of HDAC1/2 | did not result in enhanced degradation potency of HDAC1/2 | –
CC(=O)NC(C(=O)N1C[C@H](O)C[C@H]1C(=O)NCc1ccc(-c2scnc2C)cc1OCCCCNC(=O)CCCCCCCC(=O)Nc1ccc(C(=O)Nc2ccccc2N)cc1)C(C)(C)C (stereo in doubt) [Compound 24, N1-(4-(2-(((2S,4R)-1-((S)-2-Acetamido-3,3-dimethylbutanoyl)-4-hydroxypyrrolidine-2-carboxamido)methyl)-5-(4-methylthiazol-5-yl)-phenoxy)butyl)-N9-(4-((2-aminophenyl)carbamoyl)phenyl)-nonanediamide] | – | – | – | only modest degradation of HDAC1 | did not increase H3K56ac levels greater than the DMSO control
Cc1ncsc1-c1ccc(CNC(=O)[C@@H]2CC(O)CN2C(=O)[C@@H](NC(=O)COCCOCCOCCOCC(=O)Nc2ccc(C(=O)Nc3ccccc3N)cc2)C(C)(C)C)cc1 (stereo in doubt) [Compound 12, N1-(4-((2-Aminophenyl)carbamoyl)phenyl)-N14-((S)-1-((2S,4S)-4-hydroxy-2-((4-(4-methylthiazol-5-yl)benzyl)carbamoyl)-pyrrolidin-1-yl)-3,3-dimethyl-1-oxobutan-2-yl)-3,6,9,12-tetraoxatetradecanediamide] | generally compromised | – | almost complete loss of HDAC1/2 degradation | almost complete loss of HDAC1/2 degradation | did not increase H3K56ac levels compared to the dimethyl sulfoxide (DMSO) control
Cc1ncsc1-c1ccc(CNC(=O)[C@@H]2C[C@@H](O)CN2C(=O)[C@@H](NC(=O)COCCCCCCOCC(=O)Nc2ccc(C(=O)Nc3ccccc3N)cc2)C(C)(C)C)cc1 [Compound 8, (2S,4R)-1-((S)-2-(2-((6-(2-((4-((2-Aminophenyl)carbamoyl)-phenyl)amino)-2-oxoethoxy)hexyl)oxy)acetamido)-3,3-dimethylbutanoyl)-4-hydroxy-N-(4-(4-methylthiazol-5-yl)benzyl)pyrrolidine-2-carboxamide] | loss of HDAC3 degradation compared to 6 and 7 | – | – | comparable to that of 1 but not maintained at 1 μM | matched those of CI-994
Cc1ncsc1-c1ccc(CNC(=O)[C@@H]2C[C@@H](O)CN2C(=O)[C@@H](NC(=O)CCCCCCCCCCC(=O)Nc2ccc(C(=O)Nc3cc(-c4cccs4)ccc3N)cc2)C(C)(C)C)cc1 [Compound 19, N1-(4-((2-Amino-5-(thiophen-2-yl)phenyl)carbamoyl)phenyl)-N12-((S)-1-((2S,4R)-4-hydroxy-2-((4-(4-methylthiazol-5-yl)benzyl)-carbamoyl)pyrrolidin-1-yl)-3,3-dimethyl-1-oxobutan-2-yl)-dodecanediamide] | – | – | did not result in enhanced degradation potency of HDAC1/2 | did not result in enhanced degradation potency of HDAC1/2 | –
CC(=O)NC(C(=O)N1C[C@H](O)C[C@H]1C(=O)NCc1ccc(-c2scnc2C)cc1OCCCCNC(=O)CCCCC(=O)Nc1ccc(C(=O)Nc2ccccc2N)cc1)C(C)(C)C (stereo in doubt) [Compound 23, N1-(4-(2-(((2S,4R)-1-((S)-2-Acetamido-3,3-dimethylbutanoyl)-4-hydroxypyrrolidine-2-carboxamido)methyl)-5-(4-methylthiazol-5-yl)phenoxy)butyl)-N6-(4-((2-aminophenyl)carbamoyl)phenyl)-adipamide] | – | – | – | only modest degradation of HDAC1 | did not increase H3K56ac levels greater than the DMSO control
Cc1ncsc1-c1ccc(CNC(=O)[C@@H]2C[C@@H](O)CN2C(=O)[C@@H](NC(=O)COCCCCCCCCCOCC(=O)Nc2ccc(C(=O)Nc3ccc(F)cc3N)cc2)C(C)(C)C)cc1 [Compound 17, (2S,4R)-1-((S)-2-(2-((9-(2-((4-((2-Amino-4-fluorophenyl)-carbamoyl)phenyl)amino)-2-oxoethoxy)nonyl)oxy)acetamido)-3,3-dimethylbutanoyl)-4-hydroxy-N-(4-(4-methylthiazol-5-yl)-benzyl)pyrrolidine-2-carboxamide] | HDAC3 degradation was also enhanced at 1 μM compared to 1 | – | – | significant HDAC1 degradation was also still observed at 1 μM | greater than twofold increase in H3K56ac compared to the DMSO control
(2S,4R)-1-((S)-2-(2-((9-((4-((2-Aminophenyl)carbamoyl)phenyl)-amino)-9-oxononyl)oxy)acetamido)-3,3-dimethylbutanoyl)-4-hydroxy-N-(4-(4-methylthiazol-5-yl)benzyl)pyrrolidine-2-carboxamide [Compound 6] | significantly enhanced compared to that of 1 | – | – | – | increased H3K56ac to comparable or greater levels than CI-994 and 1
Cc1ncsc1-c1ccc(CNC(=O)[C@@H]2C[C@@H](O)CN2C(=O)[C@@H](NC(=O)COCCOCCOCC(=O)Nc2ccc(C(=O)Nc3cc(-c4cccs4)ccc3N)cc2)C(C)(C)C)cc1 [Compound 20, (2S,4R)-1-((S)-14-((4-((2-Amino-5-(thiophen-2-yl)phenyl)-carbamoyl)phenyl)amino)-2-(tert-butyl)-4,14-dioxo-6,9,12-trioxa-3-azatetradecanoyl)-4-hydroxy-N-(4-(4-methylthiazol-5-yl)benzyl)-pyrrolidine-2-carboxamide] | – | 3.51 µM | did not result in enhanced degradation potency of HDAC1/2 | did not result in enhanced degradation potency of HDAC1/2 | did increase H3K56ac to levels similar to 1
Cc1ncsc1-c1ccc(CNC(=O)[C@@H]2C[C@@H](O)CN2C(=O)[C@@H](NC(=O)CCCCCCCCCC(=O)Nc2ccc(C(=O)Nc3ccccc3N)cc2)C(C)(C)C)cc1 [Compound 4, N1-(4-((2-Aminophenyl)carbamoyl)phenyl)-N11-((S)-1-((2S,4R)-4-hydroxy-2-((4-(4-methylthiazol5-yl)benzyl)carbamoyl)pyrrolidin-1-yl)-3,3-dimethyl-1-oxobutan-2-yl)undecanediamide] | – | – | – | directly comparable to those of the 12-atom linker 1 | increased H3K56ac levels to the same degree as the 12-atom linker 1

From article PMC9014412 (Journal of medicinal chemistry, 2022)
